Experimental data reported in ChEMBL document CHEMBL4138123, “Design, synthesis and biological evaluation of novel pyrazolochalcones as potential modulators of PI3K/Akt/mTOR pathway and inducers of apoptosis in breast cancer cells” (Eur J Med Chem, 2017).

What was measured:
Format in all cases: functional
MDA-MB-468 [1] = assay: Cytotoxicity against human MDA-MB-468 cells assessed as growth inhibition after 48 hrs by sulforhodamine B assay; details: MDA-MB-468, 48 h
LOX IMVI = assay: Cytotoxicity against human LOXIMVI cells assessed as growth inhibition after 48 hrs by sulforhodamine B assay
M14 = assay: Cytotoxicity against human M14 cells assessed as growth inhibition after 48 hrs by sulforhodamine B assay; details: M14, 48 h
MDA-MB-435 [2] = assay: Cytotoxicity against human MDA-MB-435 cells assessed as cell growth at 0.01 uM after 48 hrs by sulforhodamine B assay relative to control; details: MDA-MB-435, 48 h, read-out: Activity
SF-539 [3] = assay: Cytotoxicity against human SF539 cells assessed as cell growth at 0.1 uM after 48 hrs by sulforhodamine B assay relative to control; details: SF-539, 48 h, read-out: Activity
SK-MEL-5 = assay: Cytotoxicity against human SK-MEL-5 cells assessed as cell growth at 100 uM after 48 hrs by sulforhodamine B assay relative to control; details: SK-MEL-5, 48 h, read-out: Activity
UACC-257 = assay: Cytotoxicity against human UACC257 cells assessed as cell growth at 1 uM after 48 hrs by sulforhodamine B assay relative to control; details: UACC-257, 48 h, read-out: Activity
NCI/ADR-RES [4] = assay: Cytotoxicity against human NCI/ADR-RES cells assessed as cell growth at 1 uM after 48 hrs by sulforhodamine B assay relative to control; details: read-out: Activity
SF-539 [5] = assay: Cytotoxicity against human SF539 cells assessed as cell growth at 100 uM after 48 hrs by sulforhodamine B assay relative to control; details: SF-539, 48 h, read-out: Activity
MCF7 = assay: Cytotoxicity against human MCF7 cells assessed as cell growth at 10 uM after 48 hrs by sulforhodamine B assay relative to control; details: MCF7, 48 h, read-out: Activity
SR = assay: Cytotoxicity against human SR cells assessed as cell growth at 0.01 uM after 48 hrs by sulforhodamine B assay relative to control; details: read-out: Activity
MDA-MB-468 [6] = assay: Cytotoxicity against human MDA-MB-468 cells assessed as cell growth at 10 uM after 48 hrs by sulforhodamine B assay relative to control; details: MDA-MB-468, 48 h, read-out: Activity
NCI-H226 [7] = assay: Cytotoxicity against human NCI-H226 cells assessed as cell growth at 0.01 uM after 48 hrs by sulforhodamine B assay relative to control; details: NCI-H226, 48 h, read-out: Activity
Hs-578T = assay: Cytotoxicity against human Hs 578T cells assessed as cell growth at 0.1 uM after 48 hrs by sulforhodamine B assay relative to control; details: read-out: Activity
OVCAR-3 = assay: Cytotoxicity against human OVCAR3 cells assessed as cell growth at 10 uM after 48 hrs by sulforhodamine B assay relative to control; details: OVCAR-3, 48 h, read-out: Activity
CCRF-CEM [8] = assay: Cytotoxicity against human CCRF-CEM cells assessed as cell growth at 0.1 uM after 48 hrs by sulforhodamine B assay relative to control; details: read-out: Activity
U-251 [9] = assay: Cytotoxicity against human U251 cells assessed as cell growth at 10 uM after 48 hrs by sulforhodamine B assay relative to control; details: U-251, 48 h, read-out: Activity
OVCAR-4 [10] = assay: Cytotoxicity against human OVCAR4 cells assessed as cell growth at 0.1 uM after 48 hrs by sulforhodamine B assay relative to control; details: OVCAR-4, 48 h, read-out: Activity
SK-MEL-28 = assay: Cytotoxicity against human SK-MEL-28 cells assessed as cell growth at 1 uM after 48 hrs by sulforhodamine B assay relative to control; details: SK-MEL-28, 48 h, read-out: Activity
MDA-MB-435 [11] = assay: Cytotoxicity against human MDA-MB-435 cells assessed as cell growth at 1 uM after 48 hrs by sulforhodamine B assay relative to control; details: MDA-MB-435, 48 h, read-out: Activity
COLO 205 = assay: Cytotoxicity against human COLO205 cells assessed as cell growth at 0.1 uM after 48 hrs by sulforhodamine B assay relative to control; details: COLO 205, 48 h, read-out: Activity
PC-3 [12] = assay: Cytotoxicity against human PC3 cells assessed as cell growth at 100 uM after 48 hrs by sulforhodamine B assay relative to control; details: PC-3, 48 h, read-out: Activity
OVCAR-4 [13] = assay: Cytotoxicity against human OVCAR4 cells assessed as cell growth at 100 uM after 48 hrs by sulforhodamine B assay relative to control; details: OVCAR-4, 48 h, read-out: Activity
NCI/ADR-RES [14] = assay: Cytotoxicity against human NCI/ADR-RES cells assessed as cell growth at 0.1 uM after 48 hrs by sulforhodamine B assay relative to control; details: read-out: Activity
NCI-H226 [15] = assay: Cytotoxicity against human NCI-H226 cells assessed as cell growth at 10 uM after 48 hrs by sulforhodamine B assay relative to control; details: NCI-H226, 48 h, read-out: Activity
OVCAR-8 = assay: Cytotoxicity against human OVCAR8 cells assessed as cell growth at 1 uM after 48 hrs by sulforhodamine B assay relative to control; details: OVCAR-8, 48 h, read-out: Activity
PC-3 [16] = assay: Cytotoxicity against human PC3 cells assessed as cell growth at 0.01 uM after 48 hrs by sulforhodamine B assay relative to control; details: PC-3, 48 h, read-out: Activity
SF-539 [17] = assay: Cytotoxicity against human SF539 cells assessed as cell growth at 1 uM after 48 hrs by sulforhodamine B assay relative to control; details: SF-539, 48 h, read-out: Activity
SW-620 = assay: Cytotoxicity against human SW620 cells assessed as cell growth at 0.1 uM after 48 hrs by sulforhodamine B assay relative to control; details: SW-620, 48 h, read-out: Activity
HT-29 = assay: Cytotoxicity against human HT-29 cells assessed as cell growth at 0.1 uM after 48 hrs by sulforhodamine B assay relative to control; details: HT-29, 48 h, read-out: Activity
HCT-15 = assay: Cytotoxicity against human HCT15 cells assessed as cell growth at 10 uM after 48 hrs by sulforhodamine B assay relative to control; details: HCT-15, 48 h, read-out: Activity
CCRF-CEM [18] = assay: Cytotoxicity against human CCRF-CEM cells assessed as cell growth at 1 uM after 48 hrs by sulforhodamine B assay relative to control; details: read-out: Activity
U-251 [19] = assay: Cytotoxicity against human U251 cells assessed as cell growth at 1 uM after 48 hrs by sulforhodamine B assay relative to control; details: U-251, 48 h, read-out: Activity
NCI-H23 = assay: Cytotoxicity against human NCI-H23 cells assessed as cell growth at 0.1 uM after 48 hrs by sulforhodamine B assay relative to control; details: NCI-H23, 48 h, read-out: Activity

COc1ccc(-c2cc(/C=C/C(=O)c3ccc4c(c3)OCO4)[nH]n2)cc1OC
GI50 (MDA-MB-468 [1]): 1.09 µM
GI50 (LOX IMVI): 1.29 µM
GI50 (M14): 1.91 µM

COc1cc(C(=O)/C=C/c2cc(-c3cc(OC)c(OC)c(OC)c3)n[nH]2)cc(OC)c1OC
growth at 0.01 µM (MDA-MB-435 [2]): 99%
growth at 0.1 µM (SF-539 [3]): 91%
growth at 100 µM (SK-MEL-5): -98%
growth at 1 µM (UACC-257): 85%
growth at 1 µM (NCI/ADR-RES [4]): 95%
growth at 100 µM (SF-539 [5]): -99%
growth at 10 µM (MCF7): -85%
growth at 0.01 µM (SR): 111%
growth at 10 µM (MDA-MB-468 [6]): -90%
growth at 0.01 µM (NCI-H226 [7]): 99%
growth at 0.1 µM (Hs-578T): 90%
growth at 10 µM (OVCAR-3): -96%
growth at 0.1 µM (CCRF-CEM [8]): 94%
growth at 10 µM (U-251 [9]): -94%
growth at 0.1 µM (OVCAR-4 [10]): 95%
growth at 1 µM (SK-MEL-28): 100%
GI50 (MDA-MB-468 [1]): 1.15 µM
LC50 (MDA-MB-468 [1]): 5.37 µM
TGI (MDA-MB-468 [1]): 2.48 µM
growth at 1 µM (MDA-MB-435 [11]): 79%
LC50 (LOX IMVI): 5.57 µM
TGI (LOX IMVI): 2.91 µM
growth at 0.1 µM (COLO 205): 102%
growth at 100 µM (PC-3 [12]): -94%
growth at 100 µM (OVCAR-4 [13]): -98%
growth at 0.1 µM (NCI/ADR-RES [14]): 106%
growth at 10 µM (NCI-H226 [15]): -92%
growth at 1 µM (OVCAR-8): 81%
growth at 0.01 µM (PC-3 [16]): 95%
LC50 (concentration killing 50% of cells) (M14): 6.13 µM
TGI (M14): 3.32 µM
growth at 1 µM (SF-539 [17]): 66%
growth at 0.1 µM (SW-620): 97%
growth at 0.1 µM (HT-29): 102%
growth at 10 µM (HCT-15): -71%
growth at 1 µM (CCRF-CEM [18]): 67%
growth at 1 µM (U-251 [19]): 83%
growth at 0.1 µM (NCI-H23): 101%

COc1cc(-c2cc(/C=C/C(=O)c3ccc(Cl)c(Cl)c3)[nH]n2)cc(OC)c1OC
growth at 0.01 µM (MDA-MB-435 [2]): 94%
growth at 0.1 µM (SF-539 [3]): 94%
growth at 100 µM (SK-MEL-5): -30%
growth at 1 µM (UACC-257): 90%
growth at 1 µM (NCI/ADR-RES [4]): 92%
growth at 100 µM (SF-539 [5]): -74%
growth at 10 µM (MCF7): 15%
growth at 0.01 µM (SR): 104%
growth at 10 µM (MDA-MB-468 [6]): -13%
growth at 0.01 µM (NCI-H226 [7]): 103%
growth at 0.1 µM (Hs-578T): 105%
growth at 10 µM (OVCAR-3): 40%
growth at 0.1 µM (CCRF-CEM [8]): 98%
growth at 10 µM (U-251 [9]): 48%
growth at 0.1 µM (OVCAR-4 [10]): 106%
growth at 1 µM (SK-MEL-28): 114%
GI50 (MDA-MB-468 [1]): 1.98 µM
LC50 (MDA-MB-468 [1]): > 100 µM
TGI (MDA-MB-468 [1]): 7.22 µM
growth at 1 µM (MDA-MB-435 [11]): 90%
LC50 (LOX IMVI): 78.4 µM
TGI (LOX IMVI): 16.4 µM
growth at 0.1 µM (COLO 205): 88%
growth at 100 µM (PC-3 [12]): 10%
growth at 100 µM (OVCAR-4 [13]): -22%
growth at 0.1 µM (NCI/ADR-RES [14]): 96%
growth at 10 µM (NCI-H226 [15]): 67%
growth at 1 µM (OVCAR-8): 88%
growth at 0.01 µM (PC-3 [16]): 95%
LC50 (concentration killing 50% of cells) (M14): > 100 µM
TGI (M14): > 100 µM
growth at 1 µM (SF-539 [17]): 88%
growth at 0.1 µM (SW-620): 99%
growth at 0.1 µM (HT-29): 98%
growth at 10 µM (HCT-15): 29%
growth at 1 µM (CCRF-CEM [18]): 71%
growth at 1 µM (U-251 [19]): 87%
growth at 0.1 µM (NCI-H23): 92%

COc1cc(-c2cc(/C=C/C(=O)c3ccc(F)c(F)c3)[nH]n2)cc(OC)c1OC
growth at 0.01 µM (MDA-MB-435 [2]): 98%
growth at 0.1 µM (SF-539 [3]): 97%
growth at 100 µM (SK-MEL-5): -88%
growth at 1 µM (UACC-257): 72%
growth at 1 µM (NCI/ADR-RES [4]): 95%
growth at 100 µM (SF-539 [5]): -63%
growth at 10 µM (MCF7): 2%
growth at 0.01 µM (SR): 100%
growth at 10 µM (MDA-MB-468 [6]): -2%
growth at 0.01 µM (NCI-H226 [7]): 99%
growth at 0.1 µM (Hs-578T): 97%
growth at 10 µM (OVCAR-3): -24%
growth at 0.1 µM (CCRF-CEM [8]): 96%
growth at 10 µM (U-251 [9]): 7%
growth at 0.1 µM (OVCAR-4 [10]): 111%
growth at 1 µM (SK-MEL-28): 98%
GI50 (MDA-MB-468 [1]): 2.22 µM
LC50 (MDA-MB-468 [1]): > 100 µM
TGI (MDA-MB-468 [1]): 9.47 µM
growth at 1 µM (MDA-MB-435 [11]): 88%
LC50 (LOX IMVI): 41.5 µM
TGI (LOX IMVI): 12.2 µM
growth at 0.1 µM (COLO 205): 98%
growth at 100 µM (PC-3 [12]): -41%
growth at 100 µM (OVCAR-4 [13]): -3%
growth at 0.1 µM (NCI/ADR-RES [14]): 98%
growth at 10 µM (NCI-H226 [15]): 16%
growth at 1 µM (OVCAR-8): 89%
growth at 0.01 µM (PC-3 [16]): 98%
LC50 (concentration killing 50% of cells) (M14): > 100 µM
TGI (M14): 11.9 µM
growth at 1 µM (SF-539 [17]): 90%
growth at 0.1 µM (SW-620): 97%
growth at 0.1 µM (HT-29): 102%
growth at 10 µM (HCT-15): 9%
growth at 1 µM (CCRF-CEM [18]): 91%
growth at 1 µM (U-251 [19]): 87%
growth at 0.1 µM (NCI-H23): 92%
